Test system: ZR-75-1 tumor
Test: ZR-75-1 subQ CDX model
Format: in vivo
Conditions: female BALB/c nude mice, 10 mg/kg, PO, QD, FIG. 14
Method: Female BALB/c nude mice were inoculated with estrogen tablets (0.36 mg/pellet, 60 days to release) 48 hours before cell inoculation. The xenograft model was established by implantation of […] of ZR-75-1 tumor cell suspension (5×10^6 cells/mouse, with 50% Matrigel) subcutaneously into the right subaxillary of female BALB/c nude mice aged 6-8 weeks. When the average tumor volume reached 153.10 mm^3, the tumor-bearing mice were randomized into treatment groups. The groups were treated as follows: Group 1: vehicle, PO, QW; Group 2: Tamoxifen 10 mg/kg, PO, QD; Group 3: Compound I-11 50 mg/kg, PO, QW.
Cell culture: The ZR-75-1 (breast, ductal carcinoma) cell was purchased from (ATCC® CRL-1500™). The base medium for this cell line ATCC-formulated RPMI-1640 Medium. To make the complete growth medium, the base medium was supplemented with 10% heat inactivated FBS and 1% PS, maintained at 37° C. in an atmosphere containing 5% CO2 in air. The tumor cells were routinely subcultured at a ratio of 1:1.5 to 1:3 every 3-6 days. Cell concentration at harvest time was 5.39×10^7 cells/mL and cell viability was 94.3% before inoculation.
Tumor inoculation: BALB/c nude mice were used in this study. Each mouse was inoculated with estrogen tablets 48 hours before cell inoculation (0.3 mg/pellet, 60 days to release). […]

Compound: CC/C(=C(\c1ccccc1)c1ccc(OCCN(C)C)cc1)c1ccccc1 [Tamoxifen, reference compound]
- tumor size growth: reduced tumor size growth

From US20240208961A1, “EIF4E INHIBITORS AND USES THEREOF” (PIC Therapeutics, Inc., priority 2022, published 2024)
